# According to PubChem BioAssay (NCI):
#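 Exposure lasted 48 hours, with cells grown in 96-well plates and compounds tested at five concentrations. TGI marks complete inhibition of growth.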
# Experiments:
# Experiment in all cases: NCI tumour cell line growth inhibition, 48 h
# 786-0 renal = system: 786-0 renal
# A549 NSCLC = system: A549 NSCLC
# ACHN renal = system: ACHN renal
# BT-549 breast = system: BT-549 breast
# CAKI-1 renal = system: CAKI-1 renal
# CCRF-CEM leukemia = system: CCRF-CEM leukemia
# COLO 205 colon = system: COLO 205 colon
# DU-145 prostate = system: DU-145 prostate
# EKVX NSCLC = system: EKVX NSCLC
# HCC-2998 colon = system: HCC-2998 colon
# HCT-116 colon = system: HCT-116 colon
# HCT-15 colon = system: HCT-15 colon
# HOP-62 NSCLC = system: HOP-62 NSCLC
# HOP-92 NSCLC = system: HOP-92 NSCLC
# HS 578T breast = system: HS 578T breast
# HT29 colon = system: HT29 colon
# IGROV1 ovarian = system: IGROV1 ovarian
# K-562 leukemia = system: K-562 leukemia
# KM12 colon = system: KM12 colon
# LOX IMVI melanoma = system: LOX IMVI melanoma
# M14 melanoma = system: M14 melanoma
# MALME-3M melanoma = system: MALME-3M melanoma
# MCF7 breast = system: MCF7 breast
# MDA-MB-231 breast = system: MDA-MB-231 breast
# MDA-MB-435 = system: MDA-MB-435
# MDA-N = system: MDA-N
# MOLT-4 leukemia = system: MOLT-4 leukemia
# NCI-H23 lung = system: NCI-H23 lung
# NCI-H460 lung = system: NCI-H460 lung
# NCI-H522 lung = system: NCI-H522 lung
# OVCAR-4 ovarian = system: OVCAR-4 ovarian
# OVCAR-5 ovarian = system: OVCAR-5 ovarian
# OVCAR-8 ovarian = system: OVCAR-8 ovarian
# PC-3 prostate = system: PC-3 prostate
# RXF 393 renal = system: RXF 393 renal
# SF-268 CNS = system: SF-268 CNS
# SF-295 CNS = system: SF-295 CNS
# SK-MEL-2 melanoma = system: SK-MEL-2 melanoma
# SK-MEL-28 melanoma = system: SK-MEL-28 melanoma
# SK-MEL-5 melanoma = system: SK-MEL-5 melanoma
# SK-OV-3 ovarian = system: SK-OV-3 ovarian
# SN12C renal = system: SN12C renal
# SNB-19 CNS = system: SNB-19 CNS
# SNB-75 CNS = system: SNB-75 CNS
# SR leukemia = system: SR leukemia
# SW-620 colon = system: SW-620 colon
# T-47D breast = system: T-47D breast
# TK-10 renal = system: TK-10 renal
# U251 CNS = system: U251 CNS
# UACC-257 melanoma = system: UACC-257 melanoma
# UACC-62 melanoma = system: UACC-62 melanoma
# UO-31 renal = system: UO-31 renal
# A498 renal = system: A498 renal
# HL-60(TB) leukemia = system: HL-60(TB) leukemia
# NCI-H226 lung = system: NCI-H226 lung
# NCI/ADR-RES ovarian = system: NCI/ADR-RES ovarian
# OVCAR-3 ovarian = system: OVCAR-3 ovarian
# RPMI-8226 leukemia = system: RPMI-8226 leukemia
# SF-539 CNS = system: SF-539 CNS
smiles,measurement,setting,value
COC(=O)CSC1CC(=O)c2c(Cl)sc(Cl)c21 (centres undefined),TGI,786-0 renal,> 100 µM
same,TGI,A549 NSCLC,> 100 µM
same,TGI,ACHN renal,> 100 µM
same,TGI,BT-549 breast,> 100 µM
same,TGI,CAKI-1 renal,> 100 µM
same,TGI,CCRF-CEM leukemia,> 100 µM
same,TGI,COLO 205 colon,> 100 µM
same,TGI,DU-145 prostate,> 100 µM
same,TGI,EKVX NSCLC,> 100 µM
same,TGI,HCC-2998 colon,> 100 µM
same,TGI,HCT-116 colon,> 100 µM
same,TGI,HCT-15 colon,> 100 µM
same,TGI,HOP-62 NSCLC,> 100 µM
same,TGI,HOP-92 NSCLC,> 100 µM
same,TGI,HS 578T breast,> 100 µM
same,TGI,HT29 colon,> 100 µM
same,TGI,IGROV1 ovarian,> 100 µM
same,TGI,K-562 leukemia,> 100 µM
same,TGI,KM12 colon,> 100 µM
same,TGI,LOX IMVI melanoma,> 100 µM
same,TGI,M14 melanoma,> 100 µM
same,TGI,MALME-3M melanoma,> 100 µM
same,TGI,MCF7 breast,> 100 µM
same,TGI,MDA-MB-231 breast,> 100 µM
same,TGI,MDA-MB-435,> 100 µM
same,TGI,MDA-N,> 100 µM
same,TGI,MOLT-4 leukemia,> 100 µM
same,TGI,NCI-H23 lung,> 100 µM
same,TGI,NCI-H460 lung,> 100 µM
same,TGI,NCI-H522 lung,> 100 µM
same,TGI,OVCAR-4 ovarian,> 100 µM
same,TGI,OVCAR-5 ovarian,> 100 µM
same,TGI,OVCAR-8 ovarian,> 100 µM
same,TGI,PC-3 prostate,> 100 µM
same,TGI,RXF 393 renal,> 100 µM
same,TGI,SF-268 CNS,> 100 µM
same,TGI,SF-295 CNS,> 100 µM
same,TGI,SK-MEL-2 melanoma,> 100 µM
same,TGI,SK-MEL-28 melanoma,> 100 µM
same,TGI,SK-MEL-5 melanoma,> 100 µM
same,TGI,SK-OV-3 ovarian,> 100 µM
same,TGI,SN12C renal,> 100 µM
same,TGI,SNB-19 CNS,> 100 µM
same,TGI,SNB-75 CNS,> 100 µM
same,TGI,SR leukemia,> 100 µM
same,TGI,SW-620 colon,> 100 µM
same,TGI,T-47D breast,> 100 µM
same,TGI,TK-10 renal,> 100 µM
same,TGI,U251 CNS,> 100 µM
same,TGI,UACC-257 melanoma,> 100 µM
same,TGI,UACC-62 melanoma,> 100 µM
same,TGI,UO-31 renal,> 100 µM
COc1ccc(OC)c(NC(=O)c2c(Cl)c(Cl)c(Cl)c(Cl)c2-c2nc3ccccc3[nH]2)c1,TGI,786-0 renal,> 100 µM
same,TGI,A498 renal,> 100 µM
same,TGI,A549 NSCLC,> 100 µM
same,TGI,ACHN renal,> 100 µM
same,TGI,BT-549 breast,> 100 µM
same,TGI,CAKI-1 renal,> 100 µM
same,TGI,CCRF-CEM leukemia,> 100 µM
same,TGI,COLO 205 colon,> 100 µM
same,TGI,DU-145 prostate,> 100 µM
same,TGI,EKVX NSCLC,> 100 µM
same,TGI,HCC-2998 colon,> 100 µM
same,TGI,HCT-116 colon,> 100 µM
same,TGI,HCT-15 colon,> 100 µM
same,TGI,HL-60(TB) leukemia,> 100 µM
same,TGI,HOP-62 NSCLC,> 100 µM
same,TGI,HOP-92 NSCLC,> 100 µM
same,TGI,HS 578T breast,> 100 µM
same,TGI,HT29 colon,> 100 µM
same,TGI,IGROV1 ovarian,> 100 µM
same,TGI,K-562 leukemia,> 100 µM
same,TGI,KM12 colon,> 100 µM
same,TGI,LOX IMVI melanoma,> 100 µM
same,TGI,M14 melanoma,> 100 µM
same,TGI,MALME-3M melanoma,> 100 µM
same,TGI,MCF7 breast,> 100 µM
same,TGI,MDA-MB-435,> 100 µM
same,TGI,MDA-N,> 100 µM
same,TGI,MOLT-4 leukemia,> 100 µM
same,TGI,NCI-H226 lung,> 100 µM
same,TGI,NCI-H23 lung,> 100 µM
same,TGI,NCI-H460 lung,> 100 µM
same,TGI,NCI-H522 lung,> 100 µM
same,TGI,NCI/ADR-RES ovarian,> 100 µM
same,TGI,OVCAR-3 ovarian,> 100 µM
same,TGI,OVCAR-4 ovarian,> 100 µM
same,TGI,OVCAR-5 ovarian,> 100 µM
same,TGI,OVCAR-8 ovarian,> 100 µM
same,TGI,PC-3 prostate,> 100 µM
same,TGI,RPMI-8226 leukemia,> 100 µM
same,TGI,RXF 393 renal,> 100 µM
same,TGI,SF-268 CNS,> 100 µM
same,TGI,SF-295 CNS,> 100 µM
same,TGI,SF-539 CNS,> 100 µM
same,TGI,SK-MEL-28 melanoma,> 100 µM
same,TGI,SK-MEL-5 melanoma,> 100 µM
same,TGI,SK-OV-3 ovarian,> 100 µM
same,TGI,SN12C renal,> 100 µM
same,TGI,SNB-19 CNS,> 100 µM
same,TGI,SNB-75 CNS,> 100 µM
same,TGI,SR leukemia,> 100 µM
same,TGI,SW-620 colon,> 100 µM
same,TGI,T-47D breast,> 100 µM
same,TGI,UACC-257 melanoma,> 100 µM
same,TGI,UACC-62 melanoma,> 100 µM
same,TGI,UO-31 renal,> 100 µM
CN(C)CCNC(=O)c1cnn(C)c1[N+](=O)[O-],TGI,786-0 renal,> 100 µM
same,TGI,A498 renal,> 100 µM
same,TGI,A549 NSCLC,> 100 µM
same,TGI,ACHN renal,> 100 µM
same,TGI,BT-549 breast,> 100 µM
same,TGI,CAKI-1 renal,> 100 µM
same,TGI,CCRF-CEM leukemia,> 100 µM
same,TGI,COLO 205 colon,47.8 µM
same,TGI,DU-145 prostate,> 100 µM
same,TGI,EKVX NSCLC,> 100 µM
same,TGI,HCC-2998 colon,> 100 µM
same,TGI,HCT-116 colon,> 100 µM
same,TGI,HCT-15 colon,> 100 µM
same,TGI,HL-60(TB) leukemia,> 100 µM
same,TGI,HOP-62 NSCLC,> 100 µM
same,TGI,HS 578T breast,> 100 µM
same,TGI,HT29 colon,> 100 µM
same,TGI,IGROV1 ovarian,> 100 µM
same,TGI,K-562 leukemia,> 100 µM
same,TGI,KM12 colon,> 100 µM
same,TGI,LOX IMVI melanoma,> 100 µM
same,TGI,M14 melanoma,> 100 µM
same,TGI,MALME-3M melanoma,36.1 µM
same,TGI,MCF7 breast,> 100 µM
same,TGI,MDA-MB-231 breast,> 100 µM
same,TGI,MDA-MB-435,> 100 µM
same,TGI,MDA-N,> 100 µM
same,TGI,MOLT-4 leukemia,> 100 µM
same,TGI,NCI-H226 lung,> 100 µM
same,TGI,NCI-H23 lung,> 100 µM
same,TGI,NCI-H460 lung,> 100 µM
same,TGI,NCI-H522 lung,> 100 µM
same,TGI,OVCAR-3 ovarian,70.6 µM
same,TGI,OVCAR-4 ovarian,> 100 µM
same,TGI,OVCAR-5 ovarian,> 100 µM
same,TGI,OVCAR-8 ovarian,> 100 µM
same,TGI,PC-3 prostate,> 100 µM
same,TGI,RPMI-8226 leukemia,> 100 µM
same,TGI,RXF 393 renal,> 100 µM
same,TGI,SF-268 CNS,> 100 µM
same,TGI,SF-295 CNS,> 100 µM
same,TGI,SF-539 CNS,> 100 µM
same,TGI,SK-MEL-2 melanoma,> 100 µM
same,TGI,SK-MEL-28 melanoma,> 100 µM
same,TGI,SK-MEL-5 melanoma,> 100 µM
same,TGI,SK-OV-3 ovarian,> 100 µM
same,TGI,SN12C renal,> 100 µM
same,TGI,SNB-19 CNS,> 100 µM
same,TGI,SNB-75 CNS,> 100 µM
same,TGI,SR leukemia,> 100 µM
same,TGI,SW-620 colon,> 100 µM
same,TGI,T-47D breast,> 100 µM
same,TGI,TK-10 renal,> 100 µM
same,TGI,U251 CNS,> 100 µM
same,TGI,UACC-257 melanoma,> 100 µM
same,TGI,UACC-62 melanoma,> 100 µM
same,TGI,UO-31 renal,> 100 µM
